These results are taken from PubChem BioAssay (NCI).

Structures are written as SMILES.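 All cell lines were grown in 96-well plates and treated with compound for 48 hours. GI50 is the concentration that inhibits growth by half. TGI: total growth inhibition.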

Some test systems named below: OVCAR-4 ovarian; SK-MEL-28 melanoma; SK-OV-3 ovarian; K-562 leukemia; OVCAR-3 ovarian; SF-539 CNS; SF-295 CNS; SK-MEL-2 melanoma; T-47D breast; HCC-2998 colon.
Experiment in all cases: inhibition of tumour cell growth, NCI panel, 48 h

With `CC(C)S(=O)(=O)c1ccccc1Nc1nc(Nc2cccc(NC(=O)CN)c2)ncc1Cl`, the GI50 is 0.336 µM in the assay with OVCAR-4 ovarian; 0.406 µM with SK-MEL-28 melanoma; 1.11 µM in the assay on SK-OV-3 ovarian; 0.198 µM in the assay with K-562 leukemia; 0.158 µM in the assay on OVCAR-3 ovarian; 0.0455 µM in the assay with SF-539 CNS. Further, the GI50 with SF-295 CNS is below 0.0225 µM; in the assay on SK-MEL-2 melanoma, 0.347 µM; in the assay with T-47D breast, 0.586 µM; in the assay with HCC-2998 colon it was 0.399 µM. Moreover, the TGI in the assay with OVCAR-4 ovarian worked out at 5.05 µM; in the assay on SK-MEL-28 melanoma, 2.25 µM; in the assay on SK-OV-3 ovarian, 8.57 µM; in the assay with K-562 leukemia, 2.55 µM; with OVCAR-3 ovarian, 3.75 µM; in the assay on SF-539 CNS, 0.334 µM. Also, the TGI was determined as 8.59 µM with SF-295 CNS, 1.57 µM in the assay with SK-MEL-2 melanoma, 4.68 µM in the assay on T-47D breast and 4.12 µM with HCC-2998 colon.
For the compound `O=C(/C=C/c1cc(CN2CCOCC2)c(O)c2ncccc12)c1cc(CN2CCOCC2)c(O)c2ncccc12`, the GI50 in the assay on OVCAR-4 ovarian is 0.0804 µM; in the assay with SK-MEL-28 melanoma it was 0.594 µM; in the assay on SK-OV-3 ovarian, 0.0348 µM; with K-562 leukemia, below 0.0114 µM; in the assay with OVCAR-3 ovarian it was 0.0535 µM; in the assay on SF-539 CNS it was 0.0433 µM. Also, the GI50 was 0.0529 µM with SF-295 CNS, 0.0637 µM with SK-MEL-2 melanoma, 0.0574 µM in the assay with T-47D breast and 0.0506 µM in the assay with HCC-2998 colon. Further, the TGI in the assay with OVCAR-4 ovarian is above 100 µM; with SK-MEL-28 melanoma, above 100 µM; in the assay with SK-OV-3 ovarian, 0.357 µM; with K-562 leukemia it was above 100 µM; with OVCAR-3 ovarian it was above 100 µM; in the assay with SF-539 CNS, 23.6 µM. The TGI is above 36.4 µM with SF-295 CNS, 4.99 µM in the assay on SK-MEL-2 melanoma, 2.48 µM in the assay on T-47D breast and above 100 µM with HCC-2998 colon.
Turning to `O=c1[nH]cnc2cccc(Cl)c12`, the TGI in the assay on OVCAR-4 ovarian, in the assay with SK-MEL-28 melanoma, in the assay with SK-OV-3 ovarian, in the assay with K-562 leukemia, in the assay on OVCAR-3 ovarian and in the assay on SF-539 CNS was above 100 µM throughout. Moreover, the TGI in the assay with SF-295 CNS, with SK-MEL-2 melanoma, in the assay on T-47D breast and with HCC-2998 colon was above 100 µM in each case.
In the case of `Cc1cn2c(/C=C3\C(=O)N(C)c4ccc(O)cc43)c(C)nc2s1`, the GI50 in the assay on OVCAR-4 ovarian was 20.5 µM; in the assay with SK-MEL-28 melanoma, 5.15 µM; in the assay with SK-OV-3 ovarian, 7.52 µM; in the assay with K-562 leukemia it was 2.01 µM; with OVCAR-3 ovarian, 2.65 µM; in the assay with SF-539 CNS it was 5.58 µM. The GI50 in the assay on SF-295 CNS is 2.82 µM; with SK-MEL-2 melanoma, 3.33 µM; in the assay on T-47D breast, 4.48 µM; with HCC-2998 colon it was 7.37 µM. In addition, the TGI was above 100 µM in the assay with OVCAR-4 ovarian; above 100 µM with SK-MEL-28 melanoma; 43.2 µM with SK-OV-3 ovarian; 20.6 µM in the assay with K-562 leukemia; 17 µM in the assay on OVCAR-3 ovarian; 28 µM with SF-539 CNS. Besides, the TGI in the assay with SF-295 CNS was 23.6 µM; in the assay on SK-MEL-2 melanoma, 18.4 µM; in the assay with T-47D breast, 64.5 µM; with HCC-2998 colon, 36 µM.
For `COc1ccc2[nH]c3c4c(ccc3c2c1)C(=O)C=CC4=O`, the TGI was 28.6 µM with OVCAR-4 ovarian; 20.2 µM in the assay on SK-MEL-28 melanoma; above 100 µM with SK-OV-3 ovarian; 3.97 µM with K-562 leukemia; 20.8 µM in the assay on OVCAR-3 ovarian; 32.2 µM with SF-539 CNS. Moreover, the TGI was 53.9 µM in the assay with SF-295 CNS, 28.5 µM with SK-MEL-2 melanoma, 9.75 µM in the assay on T-47D breast and 45.9 µM in the assay with HCC-2998 colon.
As to `CCCCC1(CN2CCOCC2)S/C(=N/c2nc(CC(=O)OCC)cs2)NC1=O` (stereo not given), the GI50 with OVCAR-4 ovarian was 33 µM; with SK-MEL-28 melanoma, 38.4 µM; in the assay with SK-OV-3 ovarian, 25.9 µM; in the assay with K-562 leukemia, 30.9 µM; in the assay with OVCAR-3 ovarian, 21.2 µM; in the assay with SF-539 CNS it was 29 µM. In addition, the GI50 in the assay on SF-295 CNS was 35.3 µM; in the assay on SK-MEL-2 melanoma it was 29.7 µM; with T-47D breast it was 41.5 µM; with HCC-2998 colon, 35.9 µM. Moreover, the TGI with OVCAR-4 ovarian is above 100 µM; in the assay on SK-MEL-28 melanoma it was above 100 µM; in the assay with SK-OV-3 ovarian it was above 100 µM; with K-562 leukemia it was above 100 µM; with OVCAR-3 ovarian, 67.7 µM; in the assay with SF-539 CNS, 89.9 µM. Also, the TGI in the assay with SF-295 CNS is above 100 µM; with SK-MEL-2 melanoma, 89.2 µM; in the assay on T-47D breast it was above 100 µM; in the assay on HCC-2998 colon, above 100 µM.
For the compound `O=C(Nc1ccc(-n2cc(-c3ccncc3)c(-c3ccc(Cl)c(O)c3)n2)cc1)Nc1ccc(Cl)c(C(F)(F)F)c1`, the GI50 with OVCAR-4 ovarian was 0.639 µM; in the assay on SK-MEL-28 melanoma, 1.63 µM; in the assay on SK-OV-3 ovarian, 2.02 µM; in the assay with K-562 leukemia, 1.89 µM; in the assay on OVCAR-3 ovarian it was 1.48 µM; with SF-539 CNS, 1.31 µM. The GI50 in the assay with SF-295 CNS is 1.26 µM; in the assay on SK-MEL-2 melanoma, 1.7 µM; in the assay with T-47D breast, 2.39 µM; in the assay with HCC-2998 colon it was 1.78 µM. Further, the TGI is 6.12 µM in the assay with OVCAR-4 ovarian; 3.45 µM with SK-MEL-28 melanoma; 4.69 µM in the assay on SK-OV-3 ovarian; 7.37 µM in the assay with K-562 leukemia; 3.11 µM in the assay on OVCAR-3 ovarian; 3.48 µM in the assay on SF-539 CNS. The TGI in the assay with SF-295 CNS was determined as 2.86 µM; in the assay with SK-MEL-2 melanoma, 3.27 µM; with T-47D breast, 6.54 µM; with HCC-2998 colon, 3.25 µM.
`O=C(Nc1ccc(Br)cc1)c1ccc(Cl)c(Cl)c1`: the GI50 in the assay on OVCAR-4 ovarian was 3.78 µM; in the assay on SK-MEL-28 melanoma, 3.93 µM; with SK-OV-3 ovarian, 3.17 µM; with K-562 leukemia, 3.99 µM; with OVCAR-3 ovarian, 2.48 µM; with SF-539 CNS, 4.01 µM. The GI50 was 2.03 µM in the assay on SF-295 CNS, 3.59 µM in the assay with SK-MEL-2 melanoma, 2 µM with T-47D breast and 3.99 µM in the assay on HCC-2998 colon. The TGI with OVCAR-4 ovarian was above 100 µM; in the assay on SK-MEL-28 melanoma, above 100 µM; in the assay with SK-OV-3 ovarian it was above 100 µM; with K-562 leukemia, above 100 µM; with OVCAR-3 ovarian it was 7.18 µM; in the assay on SF-539 CNS it was above 100 µM. In addition, the TGI is 4.94 µM in the assay on SF-295 CNS, above 29.8 µM in the assay with SK-MEL-2 melanoma, above 27.9 µM with T-47D breast and above 71.7 µM in the assay on HCC-2998 colon.
